Assays:
MCF-7 cells = MCF-7 cells under glucose-free condition; format: cell-based
Description: FIG. 11 depicts results showing that selected cancer cell lines are sensitive to MBCQ and its active derivatives under glucose free condition. BT549 cells were treated with indicated concentrations of C43 for 24 h in normal DMEM (A) or under serum free condition (B). The cell viability was assayed by MTT or harvested for western blotting assay with anti-LC3 (C). MCF-7 cells were treated with DMSO (1‰), C43 (10 μM) in DMEM with (D) or without (E) glucose, for 12 h. The cell viability was assayed by MTT or images (F). […] Bcap-37 cells were treated with indicated concentrations of C43 for 24 h in normal DMEM (H) or under serum free condition (I). The cell viability was assayed by MTT or images (J) And the cell lysates treated with C43 for indicated time were analyzed by western blotting using anti-PARP (L) or anti-LC3 (M) and α-tubulin was used as a loading control. (K) Cell cycle profile of Bcap-37 treated with C43. Bcap-37 cells were treated with DMSO (0.1%) (left figure), C43 (10 μM) (right figure) for 12 h. The cells were then fixed with 70% ethanol, stained with propidium iodide (PI, 40 μg/mL) and treated with RNase enzyme (200 μg/mL) solution for 30 min in dark. Cell cycle profile and possible apoptotic death were statistics analyzed by flow cytometer. […]

Bcap-37 cells = assay: Bcap-37 cells, normal and glucose free condition; format: cell-based
Description: FIG. 11 depicts results showing that selected cancer cell lines are sensitive to MBCQ and its active derivatives under glucose free condition. BT549 cells were treated with indicated concentrations of C43 for 24 h in normal DMEM (A) or under serum free condition (B). The cell viability was assayed by MTT or harvested for western blotting assay with anti-LC3 (C). MCF-7 cells were treated with DMSO (1‰), C43 (10 μM) in DMEM with (D) or without (E) glucose, for 12 h. The cell viability was assayed by MTT or images (F). […] Bcap-37 cells were treated with indicated concentrations of C43 for 24 h in normal DMEM (H) or under serum free condition (I). The cell viability was assayed by MTT or images (J) And the cell lysates treated with C43 for indicated time were analyzed by western blotting using anti-PARP (L) or anti-LC3 (M) and α-tubulin was used as a loading control. (K) Cell cycle profile of Bcap-37 treated with C43. Bcap-37 cells were treated with DMSO (0.1%) (left figure), C43 (10 μM) (right figure) for 12 h. The cells were then fixed with 70% ethanol, stained with propidium iodide (PI, 40 μg/mL) and treated with RNase enzyme (200 μg/mL) solution for 30 min in dark. Cell cycle profile and possible apoptotic death were statistics analyzed by flow cytometer.
To explore the mechanism by which C43 induces the death of Bcap-37 cells, the DNA content was analyzed by FACS.

[1] = tested on: autophagy (LC3) in pancreas; assay: Cerulein induced pancreatitis model in rats; format: in vivo; conditions: 40 mg/kg intraperitoneally hourly for 4 times with cerulein
Description: FIG. 13 depicts results showing the effect of MBCQ and derivatives in vivo. (A) Mice were injected with rapamycin (10 mg/kg) alone as a positive control, or with C43 or MBCQ (40 mg/kg) intraperitoneally every hour for 4 h and then sacrificed at 5 th h. The autophagy levels in liver were analyzed by western blotting using anti-LC3 antibody. (B) C43 reduces the levels of autophagy induced by cerulein. Rats were injected intraperitoneally with cerulein (50 μg/kg) alone or with C43 (40 mg/kg) hourly for 4 times. The rats were sacrificed at one h after the last injection and the pancreas were isolated for western blotting analysis using anti-LC3 and anti-tubulin (as a control).
Since autophagy has been proposed to contribute to the tissue damage in pancreatitis, MBCQ derivatives were tested to see if they could reduce tissue damage induced by cerulein injection, a well-established animal model of pancreatitis (Hashimoto, D., Ohmuraya, M., Hirota, M., Yamamoto, A., Suyama, K., Ida, S., Okumura, Y., Takahashi, E., Kido, H., Araki, K., et al. (2008). Involvement of autophagy in trypsinogen activation within the pancreatic acinar cells. J Cell Biol 181, 1065-1072; and Ohmuraya, M., and Yamamura, K. (2008). Autophagy and acute pancreatitis: a novel autophagy theory for trypsinogen activation. Autophagy 4, 1060-1062). […]

Hs578Bst cells = assay: Hs578Bst cells; format: cell-based
Description: A-B, MDCK cells were treated with DMSO (1‰) and spautin at indicated concentration in DMEM with or without glucose for 24 h. […] C-D, Hs578Bst cells were treated with DMSO (1‰) and C43 as indicated concentration in DMEM with or without glucose for 24 h.
Hs578Bst cells, established from normal tissue peripheral to the tumor and is myoepithelial in origin, also were not sensitive to spautin (FIGS. 12C and 12D).

[2] = molecular target: USP10 and USP13 interaction (Homo sapiens, UniProt Q14694+Q92995); assay: GFP-USP10 / Myc-USP13 co-immunoprecipitation in 293T cells
Beclin1 = assay: Ubiquitination of Beclin1 in 293T cells; format: cell-based
Description: FIG. 16 depicts results of experiments showing that spautin promotes the degradation of Beclin1 through proteasomal pathway. […] DMSO (1‰), MBCQ (10 μM), spautin (10 μM), NH4Cl (10 mM), MG132 (5 μM). […] B, 293T cells were transfected with GFP-Beclin1 and HA-Ub expression vectors.
Ubiquitination represents an essential key step in mediating proteasomal degradation. Experiments were therefore run to determine if ubiquitination of Beclin1 is increased in cells treated with C43.

MDA-MB-231 cells = assay: MDA-MB-231 cell survival under serum free condition; format: cell-based
Description: Since autophagy is activated under metabolic stress conditions to support cell survival, compounds were tested to determine if they promote cell death under starvation condition.

[3] = tested on: ubiquitin-proteasomal degradation pathway; assay: Proteasomal degradation pathway (pEGFP-CL1, polyubiquitination); format: cell-based
Description: In addition, the effect of MBCQ on proteasomal degradation pathway using pEGFP-CL1, a GFP fusion with a short-lived peptide was determined (Bence, N. F., Sampat, R. M., and Kopito, R. R. (2001). Impairment of the ubiquitin-proteasome system by protein aggregation. Science 292, 1552-1555).

Vps34 complex = molecular target: T1, Vps34 complex (Homo sapiens, UniProt Q8NEB9); assay: Vps34 complex kinase assay (PtdIns phosphorylation, TLC); format: biochemical; conditions: immunoprecipitated HA-Vps34 complex from 293T; wortmannin 10 uM
T1 construct: expressed in transfected cells; host or cells: 293T

H4 cells = assay: Electron microscopy of H4 cells; format: cell-based
Description: FIG. 3 depicts electron microscopy analysis of the effect of MBCQ on autophagy. H4 cells were treated with 0.1% DMSO (vehicle), rapamycin (0.2 μM), MBCQ (10 μM), or MBCQ and rapamycin for 4 h. The cells were processed and imaged by EM.
The ultra-structure of cells treated with rapamycin was determined in the presence or absence of MBCQ. […] Treatment of rapamycin led to the formation of a large numbers of autophagosomes with characteristic double membrane.

Sequence of USP10 and USP13 interaction (Q14694 whole entry): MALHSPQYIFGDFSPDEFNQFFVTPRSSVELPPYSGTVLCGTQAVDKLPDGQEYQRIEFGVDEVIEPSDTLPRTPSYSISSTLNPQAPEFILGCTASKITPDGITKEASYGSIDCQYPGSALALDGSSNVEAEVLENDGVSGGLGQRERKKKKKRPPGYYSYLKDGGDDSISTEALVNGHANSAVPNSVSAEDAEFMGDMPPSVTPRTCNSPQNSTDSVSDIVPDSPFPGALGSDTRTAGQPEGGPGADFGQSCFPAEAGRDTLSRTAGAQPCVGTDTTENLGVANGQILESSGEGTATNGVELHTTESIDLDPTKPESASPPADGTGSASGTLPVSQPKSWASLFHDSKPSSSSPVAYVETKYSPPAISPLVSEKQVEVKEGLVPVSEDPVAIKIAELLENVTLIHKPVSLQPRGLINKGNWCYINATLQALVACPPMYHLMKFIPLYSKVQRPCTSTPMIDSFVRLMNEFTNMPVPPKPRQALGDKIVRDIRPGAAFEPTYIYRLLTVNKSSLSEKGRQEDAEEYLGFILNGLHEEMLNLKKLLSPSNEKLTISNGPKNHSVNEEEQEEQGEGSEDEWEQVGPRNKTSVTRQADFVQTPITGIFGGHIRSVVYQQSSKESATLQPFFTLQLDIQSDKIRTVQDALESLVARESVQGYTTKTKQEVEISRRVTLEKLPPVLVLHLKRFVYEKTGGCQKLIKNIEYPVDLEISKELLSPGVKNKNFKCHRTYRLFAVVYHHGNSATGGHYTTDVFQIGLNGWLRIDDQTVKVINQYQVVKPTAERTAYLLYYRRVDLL
Sequence of USP10 and USP13 interaction (Q92995 whole entry): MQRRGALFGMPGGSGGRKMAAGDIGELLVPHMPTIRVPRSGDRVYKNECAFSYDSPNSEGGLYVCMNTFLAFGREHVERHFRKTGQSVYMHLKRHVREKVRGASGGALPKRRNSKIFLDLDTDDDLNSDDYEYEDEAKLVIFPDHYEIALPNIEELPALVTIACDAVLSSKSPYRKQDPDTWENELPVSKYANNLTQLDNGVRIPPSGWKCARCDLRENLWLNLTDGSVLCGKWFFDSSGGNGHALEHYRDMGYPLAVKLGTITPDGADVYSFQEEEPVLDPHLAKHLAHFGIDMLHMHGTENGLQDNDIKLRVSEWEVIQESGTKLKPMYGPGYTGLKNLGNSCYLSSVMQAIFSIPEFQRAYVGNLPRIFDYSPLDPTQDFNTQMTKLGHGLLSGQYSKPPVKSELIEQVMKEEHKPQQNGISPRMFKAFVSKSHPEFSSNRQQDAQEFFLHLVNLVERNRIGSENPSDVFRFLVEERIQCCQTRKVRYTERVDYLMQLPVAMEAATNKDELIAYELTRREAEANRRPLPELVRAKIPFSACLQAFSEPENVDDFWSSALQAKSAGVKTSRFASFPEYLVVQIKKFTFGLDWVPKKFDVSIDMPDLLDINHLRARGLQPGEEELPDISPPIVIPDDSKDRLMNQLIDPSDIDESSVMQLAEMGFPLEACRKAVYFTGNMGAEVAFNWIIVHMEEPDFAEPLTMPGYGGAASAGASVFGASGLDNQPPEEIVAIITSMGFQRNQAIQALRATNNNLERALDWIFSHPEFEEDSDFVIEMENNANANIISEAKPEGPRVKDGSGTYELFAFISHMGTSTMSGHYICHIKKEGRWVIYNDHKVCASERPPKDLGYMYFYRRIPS
T1 sequence (Q8NEB9 whole entry): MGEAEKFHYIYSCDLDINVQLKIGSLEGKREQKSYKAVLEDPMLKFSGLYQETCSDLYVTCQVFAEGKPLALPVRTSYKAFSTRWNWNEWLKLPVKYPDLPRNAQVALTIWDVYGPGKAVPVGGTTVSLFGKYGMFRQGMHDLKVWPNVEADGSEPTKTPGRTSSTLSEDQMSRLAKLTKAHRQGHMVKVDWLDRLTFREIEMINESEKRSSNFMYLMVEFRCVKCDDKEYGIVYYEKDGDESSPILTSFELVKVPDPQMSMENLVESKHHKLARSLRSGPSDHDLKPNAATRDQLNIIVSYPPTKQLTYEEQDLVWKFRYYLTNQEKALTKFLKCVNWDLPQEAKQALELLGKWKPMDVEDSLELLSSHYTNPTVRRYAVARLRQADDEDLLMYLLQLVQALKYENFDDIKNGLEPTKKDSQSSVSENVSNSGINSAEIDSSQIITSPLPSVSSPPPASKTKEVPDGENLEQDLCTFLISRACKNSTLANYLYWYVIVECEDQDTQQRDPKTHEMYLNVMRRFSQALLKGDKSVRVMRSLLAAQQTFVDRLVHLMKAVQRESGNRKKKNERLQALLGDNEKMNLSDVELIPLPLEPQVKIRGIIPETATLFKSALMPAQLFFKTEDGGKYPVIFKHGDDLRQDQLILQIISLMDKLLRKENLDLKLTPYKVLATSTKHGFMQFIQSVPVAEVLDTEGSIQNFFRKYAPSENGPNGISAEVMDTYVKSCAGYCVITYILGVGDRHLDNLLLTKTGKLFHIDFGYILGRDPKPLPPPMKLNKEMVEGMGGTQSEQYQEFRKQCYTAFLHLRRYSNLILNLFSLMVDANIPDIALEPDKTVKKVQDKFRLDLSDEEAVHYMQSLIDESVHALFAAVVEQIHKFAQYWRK
T1 sequence (Q14457 whole entry partner): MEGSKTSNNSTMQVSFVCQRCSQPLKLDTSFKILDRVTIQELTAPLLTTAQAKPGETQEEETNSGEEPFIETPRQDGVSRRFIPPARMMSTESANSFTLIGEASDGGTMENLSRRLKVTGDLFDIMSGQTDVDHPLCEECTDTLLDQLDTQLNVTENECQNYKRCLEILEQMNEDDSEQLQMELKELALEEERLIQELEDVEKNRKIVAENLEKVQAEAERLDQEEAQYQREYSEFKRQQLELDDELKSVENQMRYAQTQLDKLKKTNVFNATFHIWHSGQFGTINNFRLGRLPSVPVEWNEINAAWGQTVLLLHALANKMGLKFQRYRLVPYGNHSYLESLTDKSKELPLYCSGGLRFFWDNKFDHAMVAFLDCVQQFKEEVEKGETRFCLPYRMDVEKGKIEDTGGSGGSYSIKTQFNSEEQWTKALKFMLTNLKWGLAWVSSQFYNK

SMILES | autophagy (western blot, LC3) (MCF-7 cells; basal and glucose-free condition) | cell survival (MCF-7 cells; glucose-free condition) | autophagy (western blot) (Bcap-37 cells; basal and glucose-free conditions) | sensitivity of cells to compound (Bcap-37 cells; glucose free condition) | DNA content by FACS (Bcap-37 cells; glucose-free condition) | proliferation (Bcap-37 cells; in the presence of 10% bovine serum) | levels of autophagy induced by cerulein injection (pancreas) [1] | sensitivity of cells to compound (Hs578Bst cells) | GFP-USP10 and Myc-USP13 interaction [2] | ubiquitination of Beclin1 (Beclin1) | cell survival (MDA-MB-231 cells) | general levels of polyubiquitination [3] | levels of pEGFP-CL1 [3] | phosphorylation of PtdIns by Vps34 complex (Vps34 complex) | cell morphology (H4 cells; MBCQ alone for 4 h) | double membrane autophagosomes (H4 cells; rapamycin (0.2 μM) and MBCQ (10 μM) together, 4 h)
Fc1ccc(CNc2ncnc3ccc(F)cc23)cc1 [C43, 6-fluoro-N-(4-fluorobenzyl)quinazolin-4-amine] | inhibited autophagy | reduced the survival | inhibited autophagy | highly sensitive | induced a peak of sub-diploid DNA | inhibited the proliferation | significantly reduced the levels of autophagy | not sensitive | the interaction was inhibited | promoted the ubiquitination of Beclin1 | reduced the survival | – | – | – | – | –
Clc1ccc2ncnc(NCc3ccc4c(c3)OCO4)c2c1 [MBCQ] | – | – | – | – | – | – | – | – | – | – | – | no effect on the general levels of polyubiquitination | does not affect the levels of pEGFP-CL1 | not a direct inhibitor of Vps34 enzymatic activity | morphologically similar to that control | conspicuously absent

Source: US20120258975A1, “Potent Small Molecule Inhibitors of Autophagy, and Methods of Use Thereof” (Shanghai Institute of Organic Chemistry, priority 2009, published 2012)
